{"source": "patent US11266715B2", "about": "“C3A receptor agonists for use against ischemic brain injury, stroke, traumatic brain injury, spinal cord injury and neurodegenerative disorders” (priority 2016, dated 2022)", "system": "mice subjected to neonatal HI injury", "assay": "Cue-induced fear conditioning after neonatal HI injury, 7 days intranasal treatment", "format": "in vivo, mouse", "experimental": "In the long-term study (7 days of intranasal treatment), […] of wild-type (WT) and C3aR^−/− mice subjected to neonatal HI injury and treated with either C3a or PBS were used; WT HI-C3a (n=5), WT HI-PBS (n=8), C3aR^−/− HI-C3a (n=7), C3aR^−/− HI-PBS (n=8). These mice were tested in a cue-induced fear conditioning test at P50 and brains were collected at P51 (FIG. 7A).\nNeonatal HI injury was induced on postnatal day 9 (P9), as previously described with modifications for mice (Hedtjärn et al., 2002; Rice et al., 1981; Sheldon et al., 1998). Mice were anesthetized with 3.5% isoflurane (Baxter Medical, Kista, Sweden) for induction and 1.5% thereafter, in 1:1 oxygen and nitrous oxide. The left common carotid artery was dissected and permanently ligated with a prolene suture (6.0). […]\nCue-induced fear conditioning with a shock-paired tone and light cue was performed on P49 and P50 as previously described (Järlestedt et al., 2011). […] Freezing behaviour, a defensive response to a perceived threat, was defined as a complete lack of movement and quantified by scoring freezing behaviour (on video footage) as present or absent once every 10 s for 2 min. […] On P50, animals were again placed in the conditioning box and freezing behaviour was measured for 2 min. Following this, the shock-paired tone and light were presented for 30 s and freezing behaviour was then measured again for 2 min. […]", "data": [{"substance": "C3a: Purified human C3a peptide (Complement Technologies), C3a receptor agonist, amino acid sequence SEQ ID NO: 1", "values": [{"measurement": "extent of freezing, C3a vs PBS", "setting": "C3aR−/− mice, same protocol", "result": "did not differ"}, {"measurement": "freezing behavior after the conditioned cue vs HI PBS-treated mice", "setting": "WT mice, intranasal C3a once daily 7 days from 1 h after HI, p<0.05", "result": "significantly increased freezing behavior"}]}]}
